Measurements published in PMC6403232, “Production and Anticancer Activity of an L-Asparaginase from Bacillus licheniformis Isolated from the Red Sea, Saudi Arabia” (Scientific Reports, 2019).

Test system: T1, ASNase (L-asparaginase) from Bacillus licheniformis KKU-KH14
T1 construct: gene ansZ
Conditions: L-asparagine 0.0-0.1 M; standard assay Tris-HCl pH 7.4, 30 min; temperature of the kinetic assay not stated

Km: 50 mM
Compound: NC(=O)C[C@H](N)C(=O)O [L-asparagine]
